Laboratory results published in patent US6864286B2, “Inhibitors of the EGF-receptor tyrosine kinase and methods for their use” (Parker Hughes Institute, priority 1998, dated 2005).

What was measured:
[1] = tested on: MDA-MB-361 cells; experiment: MTT cytotoxicity assay, MDA-MB-361; type: cell-based; settings: Homo sapiens, 36 hours, read-out: Cancer Cell Cytotoxicity IC50 MDA-MB-361
Description: (§1) In order to determine the cytotoxic activity of LFM and its analogs against breast cancer cells, cells in alpha-MEM supplemented with 10% (v/v) fetal calf serum were treated with various concentrations of the compounds for 24 hours at 37° C., washed twice in alpha-MEM, and then used in either MTT assays or in vitro invasion assays, as described hereinafter.
(§2) The cytotoxicity of various compounds against human breast cancer cell lines was analyzed using the MTT (3-[4,5-dimethylthiazol-2-yl]-2,5-diphenyl tetrazolium bromide) assay (Boehringer Mannheim Corp., Indianapolis, Ind.). Uckun F. M., et al. Clin. Cancer Res. 1998, 4, 901-912. Exponentially growing breast cancer cells were seeded into a 96-well plate at a density of 2.5×10^4 cells/well and incubated for 36 hours at 37° C. prior to drug exposure. On the day of treatment, culture medium was carefully aspirated from the wells and replaced with fresh medium containing the LFM analogs at concentrations ranging from 2 to 250 μM. Triplicate wells were used for each treatment. The cells were incubated with the various compounds for 36 hours at 37° C. in a humidified 5% CO2 atmosphere. To each well, 10 μl of MTT (0.5 mg/ml final concentration) was added and the plates were incubated at 37° C. for 4 hours to allow MTT to form formazan crystals by reacting with metabolically active cells. The formazan crystals were solubilized overnight at 37° C. in a solution containing 10% SDS in 0.01 M HCl. The absorbence of each well was measured in a microplate reader (Labsystems) at 540 nm and a reference wavelength of 690 nm.
(§3) To translate the absorbance A540 values into the number of live cells in each well, the A540 values were compared to those on standard A540-versus-cell number curves generated for each cell line. The percent survival was calculated using the formula: % survival=Live cell number[test]/Live cell number [control]×100. The IC50 values were calculated by non-linear regression analysis using an Graphpad Prism software version 2.0 (Graphpad Software, Inc., San Diego, Calif.).

[2] = tested on: MDA-MB-231 cells; experiment: MTT cytotoxicity assay, MDA-MB-231; type: cell-based; settings: Homo sapiens, 36 hours, read-out: Cancer Cell Cytotoxicity IC50 MDA-MB-231
Description: as §1, §2, §3

[3] = molecular target: T1, EGFR tyrosine kinase (Homo sapiens, UniProt P00533); experiment: Cell-free EGFR immune complex kinase assay; type: biochemical; settings: EGFR immunoprecipitated from MDA-MB-231 lysates, 1 hour incubation, read-out: EGFR Inhibition IC50
T1 construct: anti-EGFR immunoprecipitates from lysates of MDA-MB-231 human breast cancer cells; endogenous in cells; host or cells: MDA-MB-231 (ATCC HTB-26)
T1 sequence (P00533 25-1210): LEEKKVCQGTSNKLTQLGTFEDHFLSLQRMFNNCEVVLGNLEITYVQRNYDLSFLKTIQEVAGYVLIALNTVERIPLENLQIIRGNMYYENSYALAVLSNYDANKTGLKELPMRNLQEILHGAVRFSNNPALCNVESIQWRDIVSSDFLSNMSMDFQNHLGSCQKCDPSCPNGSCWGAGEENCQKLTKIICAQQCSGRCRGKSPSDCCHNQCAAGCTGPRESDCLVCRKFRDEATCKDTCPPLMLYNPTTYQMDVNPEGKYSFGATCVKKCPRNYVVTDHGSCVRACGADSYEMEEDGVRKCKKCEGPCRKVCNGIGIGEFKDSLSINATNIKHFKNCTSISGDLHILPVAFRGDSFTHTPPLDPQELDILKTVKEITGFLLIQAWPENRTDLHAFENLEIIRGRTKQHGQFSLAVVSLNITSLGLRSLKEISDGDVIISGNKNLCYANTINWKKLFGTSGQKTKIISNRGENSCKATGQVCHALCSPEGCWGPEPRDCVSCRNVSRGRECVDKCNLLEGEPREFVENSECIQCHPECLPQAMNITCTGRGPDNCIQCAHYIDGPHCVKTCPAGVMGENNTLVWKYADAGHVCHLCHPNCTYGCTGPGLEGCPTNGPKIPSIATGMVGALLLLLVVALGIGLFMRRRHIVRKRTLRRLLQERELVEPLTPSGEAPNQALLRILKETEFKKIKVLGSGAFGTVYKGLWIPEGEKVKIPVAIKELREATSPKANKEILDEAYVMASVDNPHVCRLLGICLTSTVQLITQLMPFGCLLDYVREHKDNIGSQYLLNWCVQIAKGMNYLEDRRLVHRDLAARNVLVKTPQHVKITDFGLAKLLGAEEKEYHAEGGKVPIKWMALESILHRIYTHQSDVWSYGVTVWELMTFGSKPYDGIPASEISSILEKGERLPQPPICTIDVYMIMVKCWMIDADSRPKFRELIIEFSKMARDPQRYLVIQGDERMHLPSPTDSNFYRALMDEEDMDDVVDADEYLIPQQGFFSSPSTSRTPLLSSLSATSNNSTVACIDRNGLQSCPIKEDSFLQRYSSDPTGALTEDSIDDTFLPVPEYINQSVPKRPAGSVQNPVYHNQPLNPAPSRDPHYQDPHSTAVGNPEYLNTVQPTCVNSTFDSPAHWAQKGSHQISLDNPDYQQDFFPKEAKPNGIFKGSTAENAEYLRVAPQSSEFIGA
Description: For EGFR immune complex kinase assays, 24-hours after treatment with leflunomide analogs, MDA-MB-231 breast cancer cells were stimulated with 20 ng/mL EGF for 5 minutes, lysed in 1% Nonidet-P-40 buffer, and cell lysates were immunoprecipitated with an anti-EGFR antibody reactive with the sequence Ala^351-Asp^364 of the human EGFR (Upstate Biotechnology Inc. [UBI] Catalog # 05-104) (Uckun, F. M., et al. Clin. Can. Res. 1998, 4, 901). EGFR immune complexes were examined for tyrosine phosphorylation by Western blot analysis, as described by Uckun, F. M., et al. Clin. Can. Res. 1998, 4, 901. All anti-phosphotyrosine Western blots were subjected to densitometric scanning using the automated AMBIS system (Automated Microbiology System, Inc., San Diego, Calif.) and for each time point a % inhibition value was determined by comparing the density ratios of the tyrosine phosphorylated EGFR protein bands to those of the baseline sample and using the formula: % Inhibition=100−100×[Density of tyrosine phosphorylated EGFR band]test sample/[Density of tyrosine phosphorylated EGFR band]baseline control sample. The IC50 values were determined using an Inplot program (Graphpad Software, Inc., San Diego, Calif.).
In other experiments, MDA-MB-231 cells were stimulated with 10 ng/ml EGF prior to immunoprecipitation of the EGFR. EGFR immune complexes were incubated for 1 hour at room temperature with various LFM analogs and tyrosine kinase assays were performed in the presence of [γ-^32P]-ATP, as previously described (Uckun, F. M., et al. Clin. Can. Res. 1998, 4, 901; Narla, R. K., et al. Clin. Can. Res 1998, 1405; Uckun, F. M., et al. Science 1996, 22, 1096; Uckun, F. M., et al. Science 1995, 267, 886). The kinase assay gels were analyzed both by autoradiography and using the BioRad Storage Phosphor Imager System (BioRad, Hercules, Calif.) for quantitative scanning.

[4] = tested on: MDA-MB-231 cells; experiment: Confocal laser scanning microscopy of treated cells; type: cell-based, human; settings: MDA-MB-231, 100 μM, 24 hours, α-tubulin / TOTO-3 staining
Description: Immunofluorescence was used to examine the morphologic features of breast cancer cells treated with LFM and its analogs. Before the experiment, cells were trypsinized from rapidly growing tissue culture flasks and seeded onto sterile 22 mm^2 coverslips in 6-well culture plates. Cells on coverslips were returned to the incubator for 24 hours prior to treatment. The following day, drugs were added from a stock solution made in DMSO to a final concentration of 100 μM. Final DMSO concentration was 0.1% in both test samples and controls. Cells were returned to a 37° C. incubator for 24 hours before further processing.
At 24 hours, coverslips were fixed in −20° C. methanol for 15 minutes followed by a 15 minute incubation in phosphate buffered saline +0.1% Triton X-100(PBS-Tx). Coverslips were next incubated with a monoclonal antibody against α-tubulin (Sigma Chemical Co, St. Louis, Mo.) at a dilution of 1:1000 for 40 minutes in a humidified chamber at 37° C. Coverslips were washed for 15 minutes in PBS-Tx followed by a 40 min incubation with a goat anti-mouse IgG antibody conjugated to FITC (Amersham Corp., Arlington Heights, Ill.). The coverslips were again rinsed in PBS-Tx and incubated with 5 μM TOTO-3 (Molecular Probes, Eugene Oreg.) for 20 minutes to label the nuclear DNA. […]

| Compound | IC50 [1] | IC50 [2] | IC50 [3] | morphology and microtubular organization of treated cells [4] |
| --- | --- | --- | --- | --- |
| CC(O)=C(C#N)C(=O)Nc1ccc(Br)cc1 [LFM-A1, α-Cyano-β-hydroxy-β-methyl-N-(4-bromophenyl)propenamide] | > 300 µM | > 300 µM | > 100 µM |  |
| CC(O)=C(C#N)C(=O)Nc1ccc(Cl)cc1 [LFM-A2, α-Cyano-β-hydroxy-β-methyl-N-(4-chlorophenyl)propenamide] | > 300 µM | > 300 µM | > 100 µM |  |
| CC(O)=C(C#N)C(=O)Nc1ccc(F)cc1 [LFM-A3, α-Cyano-β-hydroxy-β-methyl-N-(4-fluorophenyl)propenamide] | > 300 µM | > 300 µM | > 100 µM | did not affect the morphology or microtubular organization |
| CC(O)=C(C#N)C(=O)Nc1ccccc1C(F)(F)F [LFM-A4, α-Cyano-β-hydroxy-β-methyl-N-[2-(trifluoromethyl)phenyl]-propenamide] | > 300 µM | > 300 µM | > 100 µM |  |
| CC(O)=C(C#N)C(=O)Nc1ccccc1Br [LFM-A5, α-Cyano-β-hydroxy-β-methyl-N-(2-bromophenyl)propenamide] | > 300 µM | > 300 µM | > 100 µM |  |
| CC(O)=C(C#N)C(=O)Nc1ccccc1Cl [LFM-A6, α-Cyano-β-hydroxy-β-methyl-N-(2-chlorophenyl)propenamide] | > 300 µM | > 300 µM | > 100 µM |  |
| CC(O)=C(C#N)C(=O)Nc1ccccc1F [LFM-A7, α-Cyano-β-hydroxy-β-methyl-N-(2-fluorophenyl)propenamide] | > 300 µM | > 300 µM | 74.5 µM |  |
| CC(O)=C(C#N)C(=O)Nc1cccc(C(F)(F)F)c1 [LFM-A8, α-Cyano-β-hydroxy-β-methyl-N-[3-(trifluoromethyl)phenyl]-propenamide] | > 300 µM | > 300 µM | > 100 µM |  |
| CC(O)=C(C#N)C(=O)Nc1cccc(Br)c1 [LFM-A9, α-Cyano-β-hydroxy-β-methyl-N-(3-bromophenyl)propenamide] | > 300 µM | > 300 µM | > 100 µM |  |
| CC(O)=C(C#N)C(=O)Nc1cccc(Cl)c1 [LFM-A10, α-Cyano-β-hydroxy-β-methyl-N-(3-chlorophenyl)propenamide] | > 300 µM | > 300 µM | > 100 µM |  |
| CC(O)=C(C#N)C(=O)Nc1cccc(F)c1 [LFM-A11, α-Cyano-β-hydroxy-β-methyl-N-(3-fluorophenyl)propenamide] | > 300 µM | > 300 µM | > 100 µM |  |
| CC(O)=C(C#N)C(=O)Nc1cc(Br)ccc1Br [LFM-A13, α-Cyano-β-hydroxy-β-methyl-N-(2,5-dibromophenyl)propenamide] | > 300 µM | > 300 µM | > 100 µM |  |
| CC(O)=C(C#N)C(=O)Nc1ccccc1 [LFM-A14, α-Cyano-β-hydroxy-β-methyl-N-(phenyl)propenamide] | > 300 µM | > 300 µM | > 100 µM |  |
